Series [1] relates to Trypanosoma cruzi. The series is described as follows: Trypanocidal activity against Trypanosoma cruzi Y strain epimastigotes measured after 72 hrs. It is filed as functional, organism-based.
Series [2] deals with Trypanosoma cruzi. The series is described as follows: Trypanocidal activity against Trypanosoma cruzi Y strain. It is filed as functional, organism-based.
A short description of series [3]: Selectivity ratio of IC50 for cytotoxicity against mouse J774.1 cells to IC50 for Trypanocidal activity against Trypanosoma cruzi Tulahuen 2 strain. It is filed as toxicity, cell-based. The conditions noted are these: read-out: Ratio IC50.
Series [4] deals with Trypanosoma cruzi. Kind of series: Potency index, ratio of test compound IC50 to Benznidazole IC50 for Trypanocidal activity against Trypanosoma cruzi Y strain measured after 24 hrs. It is filed as functional.
Series [5] has as its system Leishmania infantum. Kind of series: Antileishmanial activity against Leishmania infantum MCAN/ES/89/IPZ229/1/89 promastigotes assessed as reduction in parasite growth incubated for 24 hrs by flow cytometry analysis. It is filed as functional, organism-based. The conditions noted are these: MCAN/ES/89/IPZ229/1/89, 24 h. On the technique in general: Flow cytometry measures light scatter and fluorescence of single cells or particles in a stream.

Series [6] deals with Leishmania infantum. The series is described as follows: Antileishmanial activity against Leishmania infantum MCAN/ES/89/IPZ229/1/89 amastigotes assessed as reduction in parasite growth incubated for 24 hrs by flow cytometry analysis. It is filed as functional, organism-based. The conditions noted are these: MCAN/ES/89/IPZ229/1/89, 24 h.
The nature of series [7]: Selectivity ratio of IC50 for cytotoxicity against human THP-1 cells to IC50 for Antileishmanial activity against Leishmania infantum MCAN/ES/89/IPZ229/1/89 amastigotes. It is filed as toxicity, cell-based. The following applies: read-out: Ratio IC50.
The subject of series [8] is Trypanosoma cruzi. The series is described as follows: Trypanocidal activity against Trypanosoma cruzi Y strain measured after 24 hrs. It is filed as functional, organism-based.
Series [9] has as its system Trypanosoma cruzi. The series is described as follows: Trypanocidal activity against Trypanosoma cruzi Y strain amastigotes measured after 48 hrs. It is filed as functional, organism-based.
Series [10] can be described thus: Selectivity ratio of IC50 for cytotoxicity against human MRC5 cells to IC50 for Trypanocidal activity against Trypanosoma cruzi Tulahuen CL2 strain. It is filed as toxicity, cell-based. The conditions noted are these: read-out: Ratio IC50.

Some results are limits rather than exact numbers.

Consider `CC(C)=CCC/C(C)=C/COc1ccc(CCN(C)C(=O)/C=C/S(C)(=O)=O)cc1`, for which the IC50 in series [1] is 1.23 µM.

Regarding `COc1cccc([Se]C2CC3=C(OC2(C)C)c2ccccc2C(=O)C3=O)c1` (stereo not given), in series [2], the IC50 was determined as 208 µM. In series [2], `CC1(C)OC2=C(CC1[Se]c1cccc(Br)c1)C(=O)C(=O)c1ccccc12` (stereo not given) had an IC50 of 477 µM. Turning to `O=C(CS/C(C(=O)c1ccc2ccccc2c1)=C1\C=C(c2ccc(O)cc2)SS1)c1ccc2ccccc2c1`, the selectivity ratio at 48 h in series [3] turned out to be 12.8. `CC1(C)OC2=C(CC1[Se]c1ccc(C(F)(F)F)cc1)C(=O)C(=O)c1ccccc12` (stereo not given) had an IC50 in series [2] of 54.9 µM. Also, the “Ratio IC50” value in [4] is given as 2.

`C[Se]/C(=N/C(=O)c1cccnc1)NC(=O)c1cccnc1`: the IC50 in [5] worked out at 3.74 µM; in series [6], 3.03 µM. Also, the selectivity ratio in series [7] is 4.

Take `COc1ccccc1/C=C/C=N/NC(N)=S`: the IC50 in series [8] was found to be 0.4 µM. Compound `CCNC(=O)SCCOc1ccc(Oc2ccccc2)cc1` displayed an IC50 in series [9] of 7.88 µM.

Turning to `CCOc1cccc2sc(N(Cc3cccnc3)C(=O)C3CCCCC3)nc12`, the selectivity ratio in [10] is > 200. As for `Cc1cccc([Se]C2CC3=C(OC2(C)C)c2ccccc2C(=O)C3=O)c1` (stereo not given), half-maximal inhibition in [2] (IC50) required 1680 µM. Still for that read-out and setting: the same measure for `O=C(Cn1ccnc1[N+](=O)[O-])NCc1ccccc1` [BENZNIDAZOLE]: 104 µM. Same read-out and setting: next, `CC1(C)OC2=C(CC1[Se]c1cccc(Cl)c1)C(=O)C(=O)c1ccccc12` (stereo not given): 360 µM.

A word on the IC50: it is the concentration that gives 50% inhibition.

The record behind these values is ChEMBL document CHEMBL5244256, “Selenium as an interesting option for the treatment of Chagas disease: A review” (Eur J Med Chem, 2020).
